The source of these data is US20170051034A1 (Novo Nordisk A/S, priority 2010, published 2017).

Each structure is given as a SMILES string. pEC50: −log10 of the molar value. Numbered stars: 1 amine (or outer) side, 2 acyl side, 3 side chain; on linkers, the order of the positions; unused ones are H or OH. Square brackets hold non-standard residues; d marks the D form. Side chains are listed from the residue outwards. Peptide text beside a SMILES is read from it. * marks the point of attachment. C18 diacid = O=C(O)CCCCCCCCCCCCCCCCC(=O)*; C16 diacid = O=C(O)CCCCCCCCCCCCCCC(=O)*; γGlu = O=C(O)[C@H](CCC(=O)[*:2])N[*:1]; Orn = NCCC[C@H](N)C(=O)O; AEEA = NCCOCCOCC(=O)O

In the assay the target is glucagon receptor (Homo sapiens, UniProt P47871). Briefly: cell-based.
Sequence of glucagon receptor (P47871 26-477): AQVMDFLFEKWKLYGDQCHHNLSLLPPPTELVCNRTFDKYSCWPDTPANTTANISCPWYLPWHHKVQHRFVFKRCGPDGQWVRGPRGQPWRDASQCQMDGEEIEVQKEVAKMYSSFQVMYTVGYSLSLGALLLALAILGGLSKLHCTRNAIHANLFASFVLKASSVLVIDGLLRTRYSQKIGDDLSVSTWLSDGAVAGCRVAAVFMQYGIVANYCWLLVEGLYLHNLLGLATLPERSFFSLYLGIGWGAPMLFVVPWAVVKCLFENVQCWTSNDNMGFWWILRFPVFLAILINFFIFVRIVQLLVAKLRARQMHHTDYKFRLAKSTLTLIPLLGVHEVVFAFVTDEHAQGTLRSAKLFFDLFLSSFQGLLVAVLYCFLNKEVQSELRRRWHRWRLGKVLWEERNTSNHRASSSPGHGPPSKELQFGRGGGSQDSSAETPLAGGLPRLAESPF

Procedure: The cells (14000 per well) were incubated (37° C., 5% CO2) overnight in 384-well plates. Next day the cells were loaded with a calcium responsive dye that only distributed into the cytoplasm. Probenecid, an inhibitor of the organic anion transporter, was added to prevent the dye from leaving the cell. A PDE inhibitor was added to prevent formatted cAMP from being degraded. […] End point data were collected after 6 minutes. An increase in intracellular cAMP was proportional to an increased in calcium concentrations in the cytoplasm. […] EC50-values were calculated in Prism5.

For orientation: pEC50 means −log10 of the EC50, conventionally taken in molar units. Low readings indicate a large EC50, high ones a small EC50. As for `CC(C)C[C@H](NC(=O)[C@H](Cc1ccc(O)cc1)NC(=O)[C@H](CCCCN)NC(=O)[C@H](CO)NC(=O)[C@H](Cc1ccc(O)cc1)NC(=O)[C@H](CC(=O)O)NC(=O)[C@H](CO)NC(=O)[C@@H](NC(=O)[C@H](Cc1ccccc1)NC(=O)[C@@H](NC(=O)CNC(=O)[C@H](CCC(N)=O)NC(=O)[C@H](CO)NC(=O)[C@@H](N)Cc1c[nH]cn1)[C@@H](C)O)[C@@H](C)O)C(=O)N[C@@H](CC(=O)O)C(=O)N[C@@H](CO)C(=O)N[C@@H](CCCCN)C(=O)N[C@@H](CCCCN)C(=O)N[C@@H](C)C(=O)N[C@@H](CCC(N)=O)C(=O)N[C@@H](CCC(=O)O)C(=O)N[C@@H](Cc1ccccc1)C(=O)N[C@H](C(=O)N[C@@H](CCCCNC(=O)COCCOCCNC(=O)COCCOCCNC(=O)CC[C@H](NC(=O)CCCCCCCCCCCCCCC(=O)O)C(=O)O)C(=O)N[C@@H](Cc1c[nH]c2ccccc12)C(=O)N[C@@H](CC(C)C)C(=O)N[C@@H](CC(C)C)C(=O)N[C@@H](CO)C(=O)N[C@H](C(=O)O)[C@@H](C)O)C(C)C` [Example 69, N^ε24-[2-[2-[2-[[2-[2-[2-[[(4S)-4-carboxy-4-(15-carboxypentadecanoylamino)butanoyl]amino]ethoxy]ethoxy]acetyl]amino]ethoxy]ethoxy]acetyl]-[Lys^17,Lys^18,Glu^21,Lys^24,Leu^27,Ser^28]-Glucagon] (H-HSQGTFTSDYSKYLDSKKAQEFVK([AEEA-AEEA-γGlu-C16 diacid])WLLST-OH), the pEC50 is 11.22.

With `CC(C)C[C@H](NC(=O)[C@H](Cc1ccc(O)cc1)NC(=O)[C@H](CCCCN)NC(=O)[C@H](CO)NC(=O)[C@H](Cc1ccc(O)cc1)NC(=O)[C@H](CC(=O)O)NC(=O)[C@H](CO)NC(=O)[C@@H](NC(=O)[C@H](Cc1ccccc1)NC(=O)[C@@H](NC(=O)CNC(=O)[C@H](CCC(N)=O)NC(=O)[C@H](CO)NC(=O)[C@@H](N)Cc1c[nH]cn1)[C@@H](C)O)[C@@H](C)O)C(=O)N[C@@H](CC(=O)O)C(=O)N[C@@H](CO)C(=O)N[C@@H](CCCCN)C(=O)N[C@@H](CCCCN)C(=O)N[C@@H](C)C(=O)N[C@@H](CCC(N)=O)C(=O)N[C@@H](CCC(=O)O)C(=O)N[C@@H](Cc1ccccc1)C(=O)N[C@H](C(=O)N[C@@H](CCCCNC(=O)COCCOCCNC(=O)CC[C@H](NC(=O)CCCCCCCCCCCCCCCCC(=O)O)C(=O)O)C(=O)N[C@@H](Cc1c[nH]c2ccccc12)C(=O)N[C@@H](CC(C)C)C(=O)N[C@@H](CC(C)C)C(=O)N[C@@H](CO)C(=O)N[C@H](C(=O)O)[C@@H](C)O)C(C)C` [Example 71, N^ε24-[2-[2-[2-[[(4S)-4-carboxy-4-(17-carboxyheptadecanoylamino)butanoyl]amino]ethoxy]ethoxy]acetyl]-[Lys^17,Lys^18,Glu^21,Lys^24,Leu^27,Ser^28]-Glucagon] (H-HSQGTFTSDYSKYLDSKKAQEFVK([AEEA-γGlu-C18 diacid])WLLST-OH), the pEC50 is 10.49.

For the molecule `CC(C)C[C@H](NC(=O)[C@H](CC(C)C)NC(=O)[C@H](Cc1c[nH]c2ccccc12)NC(=O)[C@H](CCC(N)=O)NC(=O)[C@@H](NC(=O)[C@H](Cc1ccccc1)NC(=O)[C@H](CCC(=O)O)NC(=O)[C@H](CCC(N)=O)NC(=O)[C@H](C)NC(=O)[C@H](CCCCN)NC(=O)[C@H](CCCCN)NC(=O)[C@H](CO)NC(=O)[C@H](CC(=O)O)NC(=O)[C@H](CC(C)C)NC(=O)[C@H](Cc1ccc(O)cc1)NC(=O)[C@H](CCCCN)NC(=O)[C@H](CO)NC(=O)[C@H](Cc1ccc(O)cc1)NC(=O)[C@H](CC(=O)O)NC(=O)[C@H](CO)NC(=O)[C@@H](NC(=O)[C@H](Cc1ccccc1)NC(=O)[C@@H](NC(=O)CNC(=O)[C@H](CCC(N)=O)NC(=O)[C@H](CO)NC(=O)[C@@H](N)Cc1c[nH]cn1)[C@@H](C)O)[C@@H](C)O)C(C)C)C(=O)N[C@@H](CC(N)=O)C(=O)N[C@@H](CCCCNC(=O)COCCOCCNC(=O)COCCOCCNC(=O)CC[C@H](NC(=O)CCCCCCCCCCCCCCCCC(=O)O)C(=O)O)C(=O)O` [Example 68, N^ε29-[2-[2-[2-[[2-[2-[2-[[(4S)-4-carboxy-4-(17-carboxyheptadecanoylamino)butanoyl]amino]ethoxy]ethoxy]acetyl]amino]ethoxy]ethoxy]acetyl]-[Lys^17,Lys^18,Glu^21,Leu^27,Lys^29]-Glucagon] (H-HSQGTFTSDYSKYLDSKKAQEFVQWLLNK([AEEA-AEEA-γGlu-C18 diacid])-OH), the pEC50 is 10.28.

`CC(C)C[C@H](NC(=O)[C@H](Cc1ccc(O)cc1)NC(=O)[C@H](CCCCN)NC(=O)[C@H](CO)NC(=O)[C@H](Cc1ccc(O)cc1)NC(=O)[C@H](CC(=O)O)NC(=O)[C@H](CO)NC(=O)[C@@H](NC(=O)[C@H](Cc1ccccc1)NC(=O)[C@@H](NC(=O)CNC(=O)[C@H](CCC(N)=O)NC(=O)[C@H](CO)NC(=O)[C@@H](N)Cc1c[nH]cn1)[C@@H](C)O)[C@@H](C)O)C(=O)N[C@@H](CC(=O)O)C(=O)N[C@@H](CO)C(=O)N[C@@H](CCCCN)C(=O)N[C@@H](CCCCN)C(=O)N[C@@H](C)C(=O)N[C@@H](CCC(N)=O)C(=O)N[C@@H](CCC(=O)O)C(=O)N[C@@H](Cc1ccccc1)C(=O)N[C@H](C(=O)N[C@@H](CCCCNC(=O)COCCOCCNC(=O)COCCOCCNC(=O)CC[C@H](NC(=O)CCCCCCCCCCCCCCCCC(=O)O)C(=O)O)C(=O)N[C@@H](Cc1c[nH]c2ccccc12)C(=O)N[C@@H](CC(C)C)C(=O)N[C@@H](CC(C)C)C(=O)N[C@@H](CC(=O)O)C(=O)N[C@H](C(=O)O)[C@@H](C)O)C(C)C` [Example 67, N^ε24-[2-[2-[2-[[2-[2-[2-[[(4S)-4-carboxy-4-(17-carboxyheptadecanoylamino)butanoyl]amino]ethoxy]ethoxy]acetyl]amino]ethoxy]ethoxy]acetyl]-[Lys^17,Lys^18,Glu^21,Lys^24,Leu^27,Asp^28]-Glucagon] (H-HSQGTFTSDYSKYLDSKKAQEFVK([AEEA-AEEA-γGlu-C18 diacid])WLLDT-OH) gave a pEC50 of 10.29.

Molecule `CC(C)C[C@H](NC(=O)[C@H](Cc1ccc(O)cc1)NC(=O)[C@H](CCCCN)NC(=O)[C@H](CO)NC(=O)[C@H](Cc1ccc(O)cc1)NC(=O)[C@H](CC(=O)O)NC(=O)[C@H](CO)NC(=O)[C@@H](NC(=O)[C@H](Cc1ccccc1)NC(=O)[C@@H](NC(=O)CNC(=O)[C@H](CCC(N)=O)NC(=O)[C@H](CO)NC(=O)[C@@H](N)Cc1c[nH]cn1)[C@@H](C)O)[C@@H](C)O)C(=O)N[C@@H](CC(=O)O)C(=O)N[C@@H](CO)C(=O)N[C@@H](CCCCN)C(=O)N[C@@H](CCCNC(=N)N)C(=O)N[C@@H](C)C(=O)N[C@@H](CCC(N)=O)C(=O)N[C@@H](CCC(=O)O)C(=O)N[C@@H](Cc1ccccc1)C(=O)N[C@H](C(=O)N[C@@H](CCC(N)=O)C(=O)N[C@@H](Cc1c[nH]c2ccccc12)C(=O)N[C@@H](CC(C)C)C(=O)N[C@@H](CC(C)C)C(=O)N[C@@H](CCCCNC(=O)COCCOCCNC(=O)COCCOCCNC(=O)CC[C@H](NC(=O)CCCCCCCCCCCCCCCCC(=O)O)C(=O)O)C(=O)N[C@H](C(N)=O)[C@@H](C)O)C(C)C` [Example 43, N^ε28 ([2-[2-[2-[[2-[2-[2-[[(4S)-5-hydroxy-4-[(18-hydroxy-18-oxooctadecanoyl)amino]-5-oxopentanoyl]amino]ethoxy]ethoxy]acetyl]amino]ethoxy]ethoxy]acetyl]) [Lys^17, Glu^21 Leu^27, Lys^28] Glucagon peptide amide] (H-HSQGTFTSDYSKYLDSKRAQEFVQWLLK([AEEA-AEEA-γGlu-C18 diacid])T-NH2; N-terminus assumed) had a pEC50 of 11.52.

`CC(C)C[C@H](NC(=O)[C@H](Cc1ccc(O)cc1)NC(=O)[C@H](CCCCN)NC(=O)[C@H](CO)NC(=O)[C@H](Cc1ccc(O)cc1)NC(=O)[C@H](CC(=O)O)NC(=O)[C@H](CO)NC(=O)[C@@H](NC(=O)[C@H](Cc1ccccc1)NC(=O)[C@@H](NC(=O)CNC(=O)[C@H](CCC(N)=O)NC(=O)[C@H](CO)NC(=O)[C@@H](N)Cc1c[nH]cn1)[C@@H](C)O)[C@@H](C)O)C(=O)N[C@@H](CC(=O)O)C(=O)N[C@@H](CO)C(=O)N[C@@H](CCCCN)C(=O)N[C@@H](CCCCN)C(=O)N[C@@H](C)C(=O)N[C@@H](CCC(N)=O)C(=O)N[C@@H](CCC(=O)O)C(=O)N[C@@H](Cc1ccccc1)C(=O)N[C@H](C(=O)N[C@@H](CCCNC(=O)COCCOCCNC(=O)COCCOCCNC(=O)CC[C@H](NC(=O)CCCCCCCCCCCCCCCCC(=O)O)C(=O)O)C(=O)N[C@@H](Cc1c[nH]c2ccccc12)C(=O)N[C@@H](CC(C)C)C(=O)N[C@@H](CC(C)C)C(=O)N[C@@H](CO)C(=O)N[C@H](C(=O)O)[C@@H](C)O)C(C)C` [Example 73, N^ε24-[2-[2-[2-[[2-[2-[2-[[(4S)-4-carboxy-4-(17-carboxyheptadecanoylamino)butanoyl]amino]ethoxy]ethoxy]acetyl]amino]ethoxy]ethoxy]acetyl]-[Lys^17,Lys^18,Glu^21,Orn^24,Leu^27,Ser^28]-Glucagon] (H-HSQGTFTSDYSKYLDSKKAQEFV[Orn]([AEEA-AEEA-γGlu-C18 diacid])WLLST-OH): the pEC50 is 10.44.

In turn, `CC(C)C[C@H](NC(=O)[C@H](Cc1ccc(O)cc1)NC(=O)[C@H](CCCCN)NC(=O)[C@H](CO)NC(=O)[C@H](Cc1ccc(O)cc1)NC(=O)[C@H](CC(=O)O)NC(=O)[C@H](CO)NC(=O)[C@@H](NC(=O)[C@H](Cc1ccccc1)NC(=O)[C@@H](NC(=O)CNC(=O)[C@H](CCC(N)=O)NC(=O)[C@H](CO)NC(=O)[C@@H](N)Cc1c[nH]cn1)[C@@H](C)O)[C@@H](C)O)C(=O)N[C@@H](CC(=O)O)C(=O)N[C@@H](CO)C(=O)N[C@@H](CCCCN)C(=O)N[C@@H](CCCCN)C(=O)N[C@@H](C)C(=O)N[C@@H](CCC(N)=O)C(=O)N[C@@H](CCC(=O)O)C(=O)N[C@@H](Cc1ccccc1)C(=O)N[C@H](C(=O)N[C@@H](CCCCNC(=O)COCCOCCNC(=O)COCCOCCNC(=O)[C@H](CCC(=O)O)NC(=O)CCCCCCCCCCCCCCCCC(=O)O)C(=O)N[C@@H](Cc1c[nH]c2ccccc12)C(=O)N[C@@H](CC(C)C)C(=O)N[C@@H](CC(C)C)C(=O)N[C@@H](CO)C(=O)N[C@H](C(=O)O)[C@@H](C)O)C(C)C` [Example 72, N^ε24-[2-[2-[2-[[2-[2-[2-[[(2S)-4-carboxy-2-(17-carboxyheptadecanoylamino)butanoyl]amino]ethoxy]ethoxy]acetyl]amino]ethoxy]ethoxy]acetyl]-[Lys17,Lys18,Glu21,Lys24,Leu27,Ser28]-Glucagon] (H-HSQGTFTSDYSKYLDSKKAQEFVK([AEEA-AEEA-Glu-C18 diacid])WLLST-OH) showed a pEC50 of 10.24.
